Holding throughout (assay type): cell-based, Human
The subject of data set [1] is U87 cells. The data set can be described thus: Cell cycle assay (PI staining, flow cytometry) of U87 cells. Conditions: bepridil 25 μM 6–24 hr, CB‐DMB 3.5 μM 6–24 hr, KB‐R7943 25 μM 18 hr, BAPTA‐AM 10 μM 18 hr, CC‐930 10 μM, PD169316 10 μM 18 hr. On the procedure:
(§1) U87 cells were seeded in six‐well plates (Corning, Corning, NY, USA) with 1 × 10^6 cells per well and treated with NCX blockers, BAPTA‐AM, or MAPK inhibitors. Drug treatment was performed by the person who is blinded to the experimental groups. After treatment, cells were harvested in 15‐ml tubes and washed with cold sterile PBS. After being centrifuged, cells were fixed with 70% ethanol […] at 4°C for at least 1 hr. For propidium iodide (PI) staining, cells were washed one time with PBS and then were treated with ribonuclease A (RNase; 100 μg·ml^−1) for 30 min. PI (10 μg·ml^−1) was added, and stained cells were kept in the dark at 4°C until analysis. The number of cells analysed for each sample was 10,000 events. FACS analysis was performed using the Coulter CytoFlexS flow cytometer (Beckman Coulter, CA, USA), and the percentage of cells in the G0/G1, S, and G2/M phases was determined using cell cycle analysis software, ModFit LT 5.0 (Verity Software House, Topsham, ME, USA). For the apoptosis assay, cells were harvested and washed twice with cold PBS and resuspended at a density of 1 × 10^6 cells·ml^−1 in 100 μl of binding buffer containing 5 μl of Annexin V–FITC and 5 μl of PI working solution (100 μg·ml^−1). After incubation at room temperature for 15 min in the dark, 400 μl of binding buffer was added to each sample. Apoptosis was analysed by Coulter CytoFlexS flow cytometer (Beckman Coulter) for at least 10,000 events, and data were analysed with the software, CyExpert 2.0 (Beckman Coulter).

In the next data set the test system is [Na^+]i in U87 cells. The data set can be described thus: Na+ imaging (ANG-2 AM) of U87 cells. The conditions noted are these: bepridil 50 μM, KB‐R7943 50 μM, CB‐DMB 4 μM. On the procedure:
(§2) Cells were cultured in 96‐well plates at 8 × 10^3 per well and loaded with the cell membrane‐permeable Ca^2+ dye Fluo‐4 AM (5 μM) in 100‐μl HEPES‐buffered solution for 50 min. The solution contained (mM): 135 NaCl, 3 KCl, 2 CaCl2, 1 MgCl2, 10 glucose, and 10 HEPES, supplemented with 1% FBS at pH 7.4. To prepare the Ca^2+‐free solution, 2‐mM CaCl2 was replaced with 1‐mM EGTA in the HEPES‐buffered solution. The 96‐well plate containing the Fluo‐4 AM‐loaded cells was mounted in a Leica TCS SP8 confocal system (Leica Microsystems, Wetzlar, Germany). The confocal microscope armed with 488‐nm laser light was employed to excite the dynamic fluorescent signals in time and synchronously, while test regents were added to cells. To do Na^+ imaging, Fluo‐4 AM was replaced with the cell membrane‐permeable Na^+ dye Asante NaTrium Green‐2 AM (ANG‐2 AM) at 5 μM, which was excited by 514‐nm laser light. Visual inspection and fluorescent imaging were carried out at room temperature. The imaging data were analysed with the software https://leica-las-af-lite.software.informer.com/ 2.5 (Leica). The imaging traces shown are representative of at least three separate experiments; 12–18 cells were imaged in each experiment.

In the next data set the test system is SF188 cells. The data set can be described thus: Cell viability assay (Cell Counting Kit-8), SF188. Conditions: 72 hr, CCK-8; mean ± SEM. On the procedure: (§3) Cell viability was determined by using a Cell Counting Kit‐8 (Dojindo, Japan). Briefly, cells were harvested from flasks and plated in 96‐well cell culture plates at 5 × 10^3 per well and cultured overnight. […] Control cells were treated with cell culture medium and measured at the same time point as treatment groups. CCK‐8 solution (10 μl) was added to each well of the 96‐well plates, and the cultures were incubated for 30 min at 37°C. Absorbance at 450 nm was measured using an automatic microplate reader (Molecular Devices, San Jose, CA, USA).
(§4) Figure 2 Effect of the Na^+/Ca^2+ exchanger (NCX) blockers on viability of human glioblastoma cell lines. (a, b) Viability of adult glioblastoma cell lines (U87 and U251) after exposure to NCX blockers bepridil, KB‐R7943, SEA0400, SN‐6, or YM244769 at 0–100 μM for 72 hr. n = 5 independent tests per group. (c) Viability of paediatric glioblastoma cell line SF188 after 72‐hr incubation with the same NCX blockers at 0–100 μM. n = 5 independent tests per group. (d) For U87, U251, and SF188 cell lines, concentration of the NCX blockers required to produce half maximal inhibition (IC50: μM, mean ± SEM) of cell viability.
On the technique in general: Tetrazolium assays rely on reduction of a dye to a coloured formazan, in cell work by metabolically active cells.

Another data set has as its system [Ca^2+]i in U87 cells. The data set can be described thus: Ca2+ imaging (Fluo-4 AM) of U87 cells. How it is done:
as §2

For a further data set, the system named is U251 cells. The data set can be described thus: Cell viability assay (Cell Counting Kit-8), U251. Conditions: 72 hr, CCK-8; mean ± SEM. How it is done: as §3, §4
Data set [2] deals with U87 cells. The data set can be described thus: Cell viability assay (Cell Counting Kit-8), U87. Conditions: 72 hr, CCK-8; mean ± SEM. How it is done: as §3, §4
The subject of data set [3] is U87 cells. The data set can be described thus: Annexin V–FITC/PI apoptosis assay of U87 cells. The conditions noted are these: for Effect on apoptosis (Annexin V+ cells), compound alone: bepridil 25 μM 6–48 hr, CB‐DMB 3.5 μM 6–48 hr, KB‐R7943 25 μM 20 hr, BAPTA‐AM 10 μM 18 hr, CC‐930 10 μM, PD169316 10 μM. How it is done:
as §1

A short description of data set [4]: Cell viability assay (Cell Counting Kit-8), ranges given for U87 and U251 together. Conditions: human, U87 and U251 cells, read-out: Cell viability, % of control level. How it is done: Cell viability was determined by using a Cell Counting Kit‐8 (Dojindo, Japan). Briefly, cells were harvested from flasks and plated in 96‐well cell culture plates at 5 × 10^3 per well and cultured overnight. Cells were treated with test reagents for 72 hr. Control cells were treated with cell culture medium and measured at the same time point as treatment groups. CCK‐8 solution (10 μl) was added to each well of the 96‐well plates, and the cultures were incubated for 30 min at 37°C. Absorbance at 450 nm was measured using an automatic microplate reader (Molecular Devices, San Jose, CA, USA).

The subject of the next data set is reverse NCX. The data set can be described thus: Whole-cell patch-clamp recording of reverse-mode NCX currents in U87 cells. Conditions: reverse NCX current measured at +50 mV, mean ± SEM, n = 4, read-out: IC50, blocking reverse NCX (currents). How it is done: (§5) Whole‐cell patch‐clamp recording was performed using a Multiclamp 700B amplifier (Molecular Devices, Foster City, CA, USA) at room temperature. Voltage protocols were provided and current recorded via a DigiData‐1550B interface (Molecular Devices) controlled by pClamp 10 Software (Molecular Devices, RRID:SCR_011323). […] Internal solution consisted of (in mM): 120 CsCl, 20 NaCl, 2 MgCl2, 13 CaCl2, 2 Na2ATP, 20 BAPTA, and 10 HEPES at a pH 7.2. […] Series resistance was compensated by 75–85%. Linear leak and residual capacitance currents were subtracted online using a P/4 protocol of the pClamp 10. For the recording of the membrane currents related to the NCX, cells were held at −50 mV and depolarized to +60 mV, and then a voltage ramp starting from +60 to −120 mV was applied for 1,000 ms before returning back to −50 mV. The reverse and forward NCX currents were measured at +50 and −110 mV holding potentials respectively (Molinaro et al., 2008; Rahman, Inman, Kiss, & Janssen, 2012; Song, Chen, & Yu, 2014). Data were filtered at 3 KHz and digitized at sampling rates of 20 KHz. For drug application, cells were perfused with a VC‐6 Six Channel Perfusion Valve Control Systems (Warner Instruments, Greenwich, CT, USA) connected to a gravity‐fed perfusion systems.
(§6) Data are expressed as mean ± SEM and analysed by Prism 7 software, La Jolla, CA (GraphPad Prism, RRID:SCR_002798). The data and statistical analysis comply with the recommendations of the British Journal of Pharmacology on experimental design and analysis in pharmacology. Concentrations of the NCX blockers (IC50) exerting half‐maximal inhibition of NCX currents were obtained by fitting the concentration–response with the equation: I/I0*100%=Bottom+Top−Bottom/1+10^((^Log^IC50−C)*n) , where I 0 and I are current amplitudes measured in control and in the presence of NCX blockers, C is the logarithm of concentration, and n is the Hill coefficient. The statistical difference between two independent groups was analysed by Student's parametric unpaired t test. And the original data of more than two groups were assessed by the parametric one‐way ANOVA followed by a Tukey's post hoc test. The data for cell viability and Western blot were usually normalized to the control group, and were thus analysed by the non‐parametric Kruskal–Wallis test followed by a Dunn's post hoc test. Differences were considered to be significant when P < .05. Post hoc tests were conducted when the F value achieved the necessary level (P < .05) and there was no significant variance inhomogeneity.
(§7) We characterized the membrane currents associated with NCX activity in glioblastoma cells using whole‐cell patch‐clamp recording. […] The NCX current in its reverse mode (Ca^2+ entry) was measured at +50, and the forward‐mode current (Ca^2+ exit) was measured at −110 mV. The Ni^2+ (10 mM) was employed to inhibit and identify the NCX currents in its either reverse or forward mode as previously reported (Maack, Ganesan, Sidor, & O'Rourke, 2005).
(In general: Patch clamp records ionic current or voltage across a cell membrane.)

For a further data set, the system named is forward NCX. The data set can be described thus: Whole-cell patch-clamp recording of forward-mode NCX currents in U87 cells. The conditions noted are these: for IC50: forward NCX current measured at −110 mV, mean ± SEM, n = 4, read-out: IC50, blocking forward NCX (currents); for Inhibition of the forward NCX currents (in words): −110 mV, SEA0400 0.1–100 μM, SN‐6 and YM244769 0.1–30 μM. How it is done: as §5, §6, §7

The source of these data is article PMC6609550, “Blockade of the forward Na^+/Ca^2+ exchanger suppresses the growth of glioblastoma cells through Ca^2+‐mediated cell death” (British Journal of Pharmacology, 2019).

A word on the IC50: it is the concentration needed to halve the response being measured. Regarding `Cc1ccc(CNC(N)=NC(=O)c2nc(Cl)c(NCc3ccc(Cl)cc3)nc2N)c(C)c1` [CB‐DMB, [N‐(4‐chlorobenzyl)]2,4‐dimethylbenzamyl], the “Effect on cell cycle distribution, compound alone” value in the data set with U87 cells [1] is given as “induced G0/G1 arrest”. Further, the “Effect on intracellular Na+ [Na+]i level” value in data set [Na^+]i in U87 cells is given as “did not change”. The results for the IC50 in the data set with SF188 cells, in the data set on U251 cells and with U87 cells [2] were 2.6 ± 0.1 µM, 2.7 ± 0.1 µM and 3.1 ± 0.6 µM, respectively. For the same compound, the “Effect on intracellular Ca2+ pool and ER Ca2+ transporting” value in data set [Ca^2+]i in U87 cells (Ca2+‐free solution, followed by 5‐μM thapsigargin) was “did not affect the ER Ca^2+ transporters”. Besides, the “Effect on [Ca2+]i level” value in [Ca^2+]i in U87 cells (solution containing 2‐mM Ca2+, bepridil or KB‐R7943 25 or 50 μM, CB‐DMB 2 and 4 μM) is “elevated [Ca^2+]i”. The “Effect on apoptosis (Annexin V+ cells), compound alone” value in the data set with U87 cells [3] was “activated apoptosis in time‐dependent manner”.
In the case of `O[C@H]1CC[C@H](Nc2ncc3nc(Nc4c(F)cc(F)cc4F)n([C@H]4CCOC4)c3n2)CC1` [CC‐930, tanzisertib], in the data set with U87 cells [3], the “Effect on apoptosis (Annexin V+ cells), compound alone” value was “did not activate apoptosis”. In addition, the “Effect on bepridil-induced apoptosis” value in the data set on U87 cells [3] (bepridil 25 μM 24 hr, pretreatment BAPTA‐AM 10 μM, CC‐930 10 μM or PD169316 10 μM) is reported as “attenuated”.
A word on the viability: it is a read-out of living cells in per cent, often relative to untreated cells. For the compound `CCOc1ccc(Oc2ccc(OCc3cc(F)ccc3F)cc2)c(N)c1` [SEA0400, 2‐[4‐[(2,5‐difluorophenyl)methoxy]phenoxy]‐5‐ethoxyaniline], in data set [4], the viability at 72 h, 10 µM was in the range of 93 to 106%; the viability at 72 h, 20 µM lay in the range of 88 to 103%; the viability at 72 h, 50 µM was 72 to 92%. The IC50 in the data set on reverse NCX was 3.6 ± 1.2 µM. For the same compound, in the data set with forward NCX, the IC50 is greater than 30 µM and the “Inhibition of the forward NCX currents (in words)” value (from here on “Inhibition”) was “without inhibition of the forward NCX currents”.
Regarding `CCOC(=O)C1CSC(Cc2ccc(OCc3ccc([N+](=O)[O-])cc3)cc2)N1` (stereo not shown) [SN‐6, 2‐[[4‐[(4‐nitrophenyl)methoxy]phenyl]methyl]‐4‐thiazolidinecarboxylic acid ethyl ester], in data set [4], the viability at 72 h, 10 µM fell in the range of 87 to 97%; the viability at 72 h, 20 µM is 86 to 99%; the viability at 72 h, 50 µM fell in the range of 74 to 104%. In the data set on reverse NCX, the IC50 came out at 3.2 ± 1.2 µM. In the data set with forward NCX, the half-inhibitory concentration (IC50) was greater than 30 µM and the “Inhibition” value is “without inhibition of the forward NCX currents”.
Turning to `Cl.Cl.Nc1cccc(CNC(=O)c2ccc(Oc3ccc(OCc4cccc(F)c4)cc3)nc2)c1` [YM244769, N‐[(3‐aminophenyl)methyl]‐6‐[4‐[(3‐fluorophenyl)methoxy]phenoxy]‐3‐pyridinecarboxamide dihydrochloride], in data set [4], the viability at 72 h, 10 µM is 87 to 100%; the viability at 72 h, 20 µM lay in the range of 84 to 96%; the viability at 72 h, 50 µM lay within 71 to 76%. In addition, the IC50 with reverse NCX came out at 4.5 ± 1.1 µM. Moreover, in the data set with forward NCX, the IC50 was greater than 30 µM and the “Inhibition” value is reported as “without inhibition of the forward NCX currents”.
